One data set concerns IL-17A. The data set can be described thus: Cytokine assay: IL-17A production by human PBMC stimulated with PHA. As to conditions: Homo sapiens, PBMC, IC50 class, read-out: IL-17A Inhib. The class given is cell-based. An outline of the steps:
(§1)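 Compounds were titrated semilogarithmically for IC50, or screened at 10, 1, 0.1 and 0.01 μM, on healthy-donor PBMC stimulated for 48 h with 2 μg/ml PHA at 1×10^5 cells/well. Cytokines in culture supernatants were then quantified by ELISA or Luminex bead assay.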

In the next data set the test system is IL-17F. Put plainly: Cytokine assay: IL-17F production by human PBMC stimulated with PHA. It is filed as cell-based. As to conditions: Homo sapiens, PBMC, IC50 class, read-out: IL-17F Inhib. An outline of the steps: as §1
Data set [1] is described as follows: Aqueous solubility in 50 mM phosphate buffer (HPLC/DAD). The class given is physicochemical. As to conditions: 50 mM phosphate buffer, 23 °C, pH 7.4, aqueous buffer, kinetic from dmso stock, aqueous solubility class; read-out: aq. solub. The procedure: To achieve this, the samples (final volume 500 μl, 200 μM compound concentration) were incubated for 24 hours at 23° C. under continuous shaking at 1400 rpm (Thermomixer, Eppendorf) in aqueous phosphate buffers (pH 4.0, 6.0, 7.4 and 9.0) with a final DMSO concentration of 1%. To separate the undissolved compound from the solution, the samples were centrifuged (30 min 18000 g at 23° C.). Supernatants were measured via HPLC equipped with a UV detector and concentrations were calculated according to signals of a standard curve. The standard curve was prepared by diluting a stock solution of each compound (c=0.1 mg/ml; received by adding 10 μl of 20 mM compound in DMSO to 914 μl MeCN) in a certain amount of MeCN to cover a range of 0.1 to 200 μg/ml.

For the next data set, the system named is INF-γ. Put plainly: Cytokine assay: INF-γ production by human PBMC stimulated with PHA. The class given is cell-based. As to conditions: Homo sapiens, PBMC, IC50 class, read-out: IFN-gamma Inhib. An outline of the steps:
as §1

Data set [2] is described as follows: Microsomal stability: incubation with human liver microsomes, residual parent compound by HPLC-MS/MS. As to conditions: pH 7.4; human liver microsomes, 1 μM compound, 0.5 mg/ml HLM, 37° C., up to 60 min; read-out: t1/2 hLM. The class given is in vitro ADME. Here is the method:
Metabolic stability of compounds of the present invention was determined by incubation with human liver microsomes and subsequent determination of residual amount of the respective compound (“parent compound”) by HPLC-MS/MS.
In order to achieve this, in a final reaction volume of 1000 μl, each compound was incubated at a final concentration of 1 μM with 0.5 mg/ml human liver microsomes (HLM Pool 50 Donors, 20 mg/ml, BD Gentest, #452156, LotNr 88114) in 0.1 M Potassium phosphate buffer at pH 7.4, with a cofactor in form of a NADPH regenerating system (Promega, #V9510) according to the manufacturers' specifications. The final DMSO concentration in each sample was 0.4%. The incubation was performed at 37° C. under shaking conditions (Thermomixer, 1400 rpm) for different time intervals up to 60 min. To stop the reaction, for each time point 200 μl of the reaction were taken out and 200 μl ice-cold acetonitrile was added. Then, the samples were centrifuged (4° C., 14000*g for 15 min). The supernatant was analyzed for residual parent compound concentration and scanned for metabolites using HPLC-MS/MS. By using optimized MS methods for each compound, the peak area under curve for the compound specific signal is determined. The change of the peak areas over the assay time of 60 min resemble the remaining parent compound in % of T0. By these points, a balancing line was set. The half-time, as well as the clearance, can then be calculated on the basis of the slope.
A general note: Liver microsomes are vesicles of endoplasmic reticulum, rich in cytochrome P450 enzymes.

16 compounds from patent publication US11292788B2, “IL-17 and IFN-gamma inhibition for the treatment of autoimmune diseases and chronic inflammation” (Immunic AG, priority 2017, dated 2022) can be followed below.

Regarding `COCc1c(-c2c(F)cccc2Cl)noc1-c1cnn(CC(C)(C)O)c1C(F)(F)F` [Example 65, 1-(4-(3-(2-chloro-6-fluorophenyl)-4-(methoxymethyl)isoxazol-5-yl)-5-(trifluoromethyl)-1H-pyrazol-1-yl)-2-methylpropan-2-ol], the IC50 in the data set with IL-17A, with IL-17F and in the data set on INF-γ was 500 to 5000 nM in each case. Moreover, in data set [1], the solubility at 24 h was over 10 µM.

Turning to `COCc1c(-c2c(F)cccc2Cl)noc1-c1cnn(C[C@@H](C)O)c1C(F)(F)F` [Example 66, (2R)-1-(4-(3-(2-chloro-6-fluorophenyl)-4-(methoxymethyl)isoxazol-5-yl)-5-(trifluoromethyl)-1H-pyrazol-1-yl)propan-2-ol], the figures for the IC50 with IL-17A, in the data set on IL-17F and in the data set on INF-γ were 50 to 500 nM, 50 to 500 nM and under 50 nM, respectively. For the same compound, the solubility at 24 h in data set [1] was over 10 µM.

With `CN(C)CCOc1cccc(-c2noc(-c3cnn(CCC(C)(C)O)c3C(F)(F)F)c2-c2ncccn2)c1Cl` [Example 134, 4-[4-(3-{2-chloro-3-[2-(dimethylamino)ethoxy]phenyl}-4-(pyrimidin-2-yl)-1,2-oxazol-5-yl)-5-(trifluoromethyl)-1H-pyrazol-1-yl]-2-methylbutan-2-ol], the results for the IC50 in the data set with IL-17A, with IL-17F and in the data set with INF-γ were under 50 nM, 50 to 500 nM and 50 to 500 nM, respectively. The half-life at 1 μM in data set [2] was over 100 min.

Take `CC(C)(O)CCn1ncc(-c2onc(-c3cccc(OCCN4CCCC4)c3Cl)c2-c2ncccn2)c1C(F)(F)F` [Example 135, 4-[4-(3-{2-chloro-3-[2-(pyrrolidin-1-yl)ethoxy]phenyl}-4-(pyrimidin-2-yl)-1,2-oxazol-5-yl)-5-(trifluoromethyl)-1H-pyrazol-1-yl]-2-methylbutan-2-ol]: the figures for the IC50 with IL-17A, in the data set with IL-17F and with INF-γ were 50 to 500 nM, 50 to 500 nM and under 50 nM, respectively. Further, the half-life at 1 μM in data set [2] lay in the range of 40 to 100 min.

`CCN(CC)CCOc1cccc(-c2noc(-c3cnn(CCC(C)(C)O)c3C(F)(F)F)c2-c2ncccn2)c1Cl` [Example 137, 4-[4-(3-{2-chloro-3-[2-(diethylamino)ethoxy]phenyl}-4-(pyrimidin-2-yl)-1,2-oxazol-5-yl)-5-(trifluoromethyl)-1H-pyrazol-1-yl]-2-methylbutan-2-ol]: the IC50 in the data set with IL-17A, in the data set on IL-17F and with INF-γ was 50 to 500 nM in each case. In addition, in data set [2], the half-life at 1 μM was in the range of 10 to 40 min.

For `CC(C)(O)CCn1ncc(-c2onc(-c3cccc(OCCN4CCS(=O)(=O)CC4)c3Cl)c2-c2ncccn2)c1C(F)(F)F` [Example 138, 4-[2-(2-chloro-3-{5-[1-(3-hydroxy-3-methylbutyl)-5-(trifluoromethyl)-1H-pyrazol-4-yl]-4-(pyrimidin-2-yl)-1,2-oxazol-3-yl}phenoxy)ethyl]-thiomorpholine-1,1-dione], the results for the IC50 with IL-17A, with IL-17F and in the data set with INF-γ were under 50 nM, under 50 nM and 50 to 500 nM, respectively. For the same compound, the half-life at 1 μM in data set [2] is 2 to 9.99 min.

As for `CC(C)(O)CCn1ncc(-c2onc(-c3cccc(OCCN4CC5(COC5)C4)c3Cl)c2-c2ncccn2)c1C(F)(F)F` [Example 139, 4-(4-{3-[2-chloro-3-(2-{2-oxa-6-azaspiro[3.3]heptan-6-yl}ethoxy)phenyl]-4-(pyrimidin-2-yl)-1,2-oxazol-5-yl}-5-(trifluoromethyl)-1H-pyrazol-1-yl)-2-methylbutan-2-ol], the IC50 in the data set on IL-17A was under 50 nM; with IL-17F, under 50 nM; with INF-γ, 50 to 500 nM. In addition, the half-life at 1 μM in data set [2] was in the range of 10 to 40 min.

For the compound `CC(C)(O)CCn1ncc(-c2onc(-c3cccc(OCCCN4CCS(=O)(=O)CC4)c3Cl)c2-c2ncccn2)c1C(F)(F)F` [Example 141, 4-[3-(2-chloro-3-{5-[1-(3-hydroxy-3-methylbutyl)-5-(trifluoromethyl)-1H-pyrazol-4-yl]-4-(pyrimidin-2-yl)-1,2-oxazol-3-yl}phenoxy)propyl]-thiomorpholine-1,1-dione], the IC50 with IL-17A, in the data set on IL-17F and in the data set on INF-γ was under 50 nM in each case. The half-life at 1 μM in data set [2] was in the range of 2 to 9.99 min.

Turning to `CCN(CC)CCOc1cccc(-c2noc(-c3cnn(CCC(C)(C)O)c3C)c2-c2ncccn2)c1Cl` [Example 144, 4-[4-(3-{2-chloro-3-[2-(diethylamino)ethoxy]phenyl}-4-(pyrimidin-2-yl)-1,2-oxazol-5-yl)-5-methyl-1H-pyrazol-1-yl]-2-methylbutan-2-ol], the IC50 in the data set with IL-17A lay within 500 to 5000 nM; with IL-17F it was 500 to 5000 nM; in the data set with INF-γ, 50 to 500 nM. Further, the solubility at 24 h in data set [1] is over 10 µM.

As for `Cc1c(-c2onc(-c3cccc(OCCN(C)C)c3Cl)c2-c2ncccn2)cnn1CCC(C)(C)O` [Example 145, 4-[4-(3-{2-chloro-3-[2-(dimethylamino)ethoxy]phenyl}-4-(pyrimidin-2-yl)-1,2-oxazol-5-yl)-5-methyl-1H-pyrazol-1-yl]-2-methylbutan-2-ol], the IC50 with IL-17A lay in the range of 500 to 5000 nM; in the data set with IL-17F it was 500 to 5000 nM; in the data set on INF-γ, 50 to 500 nM. The half-life at 1 μM in data set [2] is over 100 min.

Regarding `Cc1c(-c2onc(-c3cccc(OCCN4CCCC4)c3Cl)c2-c2ncccn2)cnn1CCC(C)(C)O` [Example 146, 4-[4-(3-{2-chloro-3-[2-(pyrrolidin-1-yl)ethoxy]phenyl}-4-(pyrimidin-2-yl)-1,2-oxazol-5-yl)-5-methyl-1H-pyrazol-1-yl]-2-methylbutan-2-ol], the IC50 in the data set with IL-17A lay within 50 to 500 nM; in the data set with IL-17F, 500 to 5000 nM; in the data set with INF-γ, 50 to 500 nM. For the same compound, in data set [2], the half-life at 1 μM is over 100 min.

With `COC(=O)c1c(-c2cccc(OCCN3CCOCC3)c2Cl)noc1-c1cnn(C[C@H](C)O)c1C(F)(F)F` [Example 148, methyl 3-{2-chloro-3-[2-(morpholin-4-yl)ethoxy]phenyl}-5-{1-[(2S)-2-hydroxypropyl]-5-(trifluoromethyl)-1H-pyrazol-4-yl}-1,2-oxazole-4-carboxylate], the IC50 in the data set with IL-17A, in the data set with IL-17F and with INF-γ was under 50 nM in each case. Moreover, the half-life at 1 μM in data set [2] was in the range of 2 to 9.99 min.

With `COCc1c(-c2cccc(OCCN3CCOCC3)c2Cl)noc1-c1cnn([C@H]2C[C@@](C)(O)C2)c1C(F)(F)F` [Example 150, 3-[4-(3-{2-chloro-3-[2-(morpholin-4-yl)ethoxy]phenyl}-4-(methoxymethyl)-1,2-oxazol-5-yl)-5-(trifluoromethyl)-1H-pyrazol-1-yl]-1-methylcyclobutan-1-ol], the IC50 in the data set with IL-17A, in the data set with IL-17F and with INF-γ was under 50 nM throughout. Further, the half-life at 1 μM in data set [2] was 2 to 9.99 min.

`COCc1c(-c2cccc(OCCN(C)C)c2Cl)noc1-c1cnn([C@H]2C[C@@](C)(O)C2)c1C(F)(F)F` [Example 151, 3-[4-(3-{2-chloro-3-[2-(dimethylamino)ethoxy]phenyl}-4-(methoxymethyl)-1,2-oxazol-5-yl)-5-(trifluoromethyl)-1H-pyrazol-1-yl]-1-methylcyclobutan-1-ol]: the IC50 in the data set on IL-17A, in the data set on IL-17F and in the data set with INF-γ was 50 to 500 nM in each case. Moreover, in data set [2], the half-life at 1 μM was over 100 min.

In the case of `COCc1c(-c2cccc(OCCN3CCOCC3)c2Cl)noc1-c1cnn([C@H]2C[C@](C)(O)C2)c1C(F)(F)F` [Example 152, 3-[4-(3-{2-chloro-3-[2-(morpholin-4-yl)ethoxy]phenyl}-4-(methoxymethyl)-1,2-oxazol-5-yl)-5-(trifluoromethyl)-1H-pyrazol-1-yl]-1-methylcyclobutan-1-ol], the IC50 in the data set on IL-17A, in the data set with IL-17F and with INF-γ was 50 to 500 nM each time. In addition, the half-life at 1 μM in data set [2] lay in the range of 2 to 9.99 min.

Consider `COCc1c(-c2cccc(OCCN(C)C)c2Cl)noc1-c1cnn([C@H]2C[C@](C)(O)C2)c1C(F)(F)F` [Example 153, 3-[4-(3-{2-chloro-3-[2-(dimethylamino)ethoxy]phenyl}-4-(methoxymethyl)-1,2-oxazol-5-yl)-5-(trifluoromethyl)-1H-pyrazol-1-yl]-1-methylcyclobutan-1-ol], for which the IC50 in the data set with IL-17A is at least 5000 nM; in the data set on IL-17F it was 500 to 5000 nM; in the data set on INF-γ it was 500 to 5000 nM. Besides, in data set [2], the half-life at 1 μM was over 100 min.
